Here are results for 1 molecule from patent US8093060B2, “Multisite phosphorylated peptide (protein) recognizing compound and detection method, imaging method, alzheimer's disease diagnosing method and reagent kit using the same” (Canon Kabushiki Kaisha, priority 2008, dated 2012).

One assay deals with T1, Tau0P (Homo sapiens, UniProt P10636).
T1 construct: made in house; host or cells: chemical solid-phase synthesis
Briefly: Fluorescence titration of BODIPY-Zn(Dpa) with Tau0P. The class given is binding. The method, then:
(§1) The phosphorylated peptide-recognizing ability of BODIPY-Zn(Dpa) compound 9 (hereinafter referred to as BODIPY-Zn(Dpa)) was evaluated by measuring fluorescence spectra. Measurement was performed under the following conditions: [BODIPY-Zn(Dpa)]=5 μM; pH 7.2; 50 mM HEPES buffer; and 25° C. The excitation wavelength was λex=530 nm. […] When Tau2P was excessively added, this change reached saturation. The […] calculated from the fluorescence changes was 2.75×10^5 M^−1.

The target in the next assay is T2, Tau204-2162P (Homo sapiens, UniProt P10636).
T2 construct: made in house; host or cells: chemical solid-phase synthesis
Kind of assay: Fluorescence titration of BODIPY-Zn(Dpa) with Tau204-2162P (i, i+6). It counts as binding. The method, then:
as §1
Fluorescence changes when peptide Tau204-2163P or Tau204-2162P used in Example 1 was added dropwise were measured to calculate the affinity (association constant).

For another assay, the system named is GSK-3β. Kind of assay: Kinase assay using BODIPY-Zn(Dpa), Tau1P and GSK-3β. It counts as biochemical. The method, then: A kinase assay was performed using Tau1P, a phosphorylated partial sequence peptide of a tau protein, BODIPY-Zn(Dpa) and GSK-3β, which phosphorylates the 231st threonine. The experiment conditions were as follows: 20 μM Tau1P, 20 μM BODIPY-Zn(Dpa), 100 μM ATP, 2 μg of BSA, 50 mM HEPES, 10 mM MgCl2, 10 mM DTT, 2 μM EDTA; pH 7.2; 30° C.; and an excitation wavelength of 540 nm. […] This is a result of phosphorylation of the 231st threonine in Tau1P by GSK-3β, recognition of the phosphorylation by BODIPY-Zn(Dpa) and the resulting interaction.

Assay [1] deals with phosphorylated tau protein. Briefly: Fluorescence staining of AD-affected human brain hippocampal tissue sections, costaining with tau antibodies. The conditions noted are these: 10 μM probe. The method, then: To investigate whether an excessively phosphorylated tau protein in brain tissues can be detected, a fluorescence staining experiment of hippocampal tissue sections from a human brain affected by Alzheimer (AD) and a normal brain was performed using BODIPY-Zn(Dpa). Specifically, hippocampal tissue sections from the AD-affected human brain or the normal brain were deparaffinized (xylene immersion for 5 min was repeated three times, then each section was immersed in 100%, 90%, 80% and 70% aqueous ethanol solution in stages [for 2 min each], and finally washed twice with water for 5 min), lipofuscin was removed (washed twice with PBS for 2 min, immersed in 0.25% by weight permanganate potassium/PBS for 30 min, washed twice with PBS for 2 min, immersed in 1% by weight oxalic acid and 1% by weight potassium pyrosulfate/PBS for 6 min and finally washed twice with PBS for 2 min), trypsin treatment was performed (washed twice with PBS-Tween at room temperature for 2 min and 0.05% Trypsin/PBS at 37° C. for 15 min), and finally washed twice with PBS-Tween at room temperature for 5 min, and costaining was performed using an antibody and BODIPY-Zn(Dpa). First, blocking was performed with 10% goat serum (37° C., 30 min) to remove 10% goat serum, then a primary antibody was added, and a reaction was performed at 4° C. for 17 to 19 h. […]

In assay [2] the target is T3, nonphosphorylated Tau aggregate (n-Tau) (Homo sapiens, UniProt P10636).
T3 construct: made in house; host or cells: Escherichia coli
T3 sequence (P10636 1-441 isoform P10636-8): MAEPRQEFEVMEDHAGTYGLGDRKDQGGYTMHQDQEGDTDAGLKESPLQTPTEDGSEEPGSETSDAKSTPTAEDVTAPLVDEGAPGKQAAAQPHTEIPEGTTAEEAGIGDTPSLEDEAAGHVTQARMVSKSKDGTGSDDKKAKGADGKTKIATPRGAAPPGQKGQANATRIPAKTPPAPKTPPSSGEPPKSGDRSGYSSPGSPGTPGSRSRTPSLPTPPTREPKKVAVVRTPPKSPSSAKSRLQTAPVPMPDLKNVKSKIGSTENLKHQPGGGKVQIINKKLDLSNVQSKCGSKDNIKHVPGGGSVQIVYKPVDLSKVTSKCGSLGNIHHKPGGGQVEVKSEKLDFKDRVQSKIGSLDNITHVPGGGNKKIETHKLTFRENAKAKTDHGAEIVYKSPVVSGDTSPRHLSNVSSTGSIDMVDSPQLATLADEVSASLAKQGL
Kind of assay: Fluorescence staining of nonphosphorylated tau aggregate prepared in vitro. Particulars: 10 μM dye. The class given is binding. The method, then:
Tau proteins (8 μM) expressed by Escherichia coli and heparin (1.6 μM) were incubated at 37° C. for 20 days to prepare a tau aggregate. A phosphorylated tau aggregate was similarly prepared using tau proteins phosphorylated with GSK-3β in vitro. The results of Pro-Q diamond staining after performing SDS-PAGE confirmed that the in-vitro phosphorylation was performed with a phosphorylation degree of 6 mol P/mol Tau.
10 μM BODIPY-Zn(Dpa) or 10 μM thioflavine T (may be referred to as ThT) were added to the prepared tau aggregate or phosphorylated tau aggregate. After the addition, the mixture was washed twice with 0.5 mM Zn(NO3)2, and a suspension (0.5 μL) of the stained phosphorylated tau aggregate was air-dried on a cover glass and observed under a confocal laser scanning microscope (OLYMPUS FV-1000, Obj. lens 100×).

Each structure is given as a SMILES string. Entries after “also recorded” stand apart in the source; their conditions may differ.

Consider `CC1=C(c2ccc(CN(C)Cc3ccccn3)nc2)C(C)=[N+]2C1=C(c1cc(OCCOCCOCCO)cc(OCCOCCOCCO)c1)c1c(C)c(-c3ccc(CN(C)Cc4ccccn4)nc3)c(C)n1[B-]2(F)F.O=[N+]([O-])[O-].O=[N+]([O-])[O-].O=[N+]([O-])[O-].O=[N+]([O-])[O-].[Zn+2].[Zn+2]` [BODIPY-Zn(Dpa)], for which the “I/I0 - 1 at saturation” value at Tau0P (Tau 0P) is “No change”; on Tau204-2162P (Tau204-216 2P (i, i+6)) it was “No change”. In addition, the “fluorescence intensity change on addition of peptide” value on Tau0P (Tau0P, unphosphorylated) is on record as “no major change was observed”. Besides, the “detection of / interaction with peptide by fluorescence change” value at Tau204-2162P (Tau204-2162P (i, i+6)) is recorded as “could not be detected; also recorded: did not interact”. In the assay with GSK-3β (20 μM Tau1P, 20 μM BODIPY-Zn(Dpa), 100 μM ATP, 30° C.), the “fluorescence intensity change with time” value is recorded as “increase in fluorescence intensity with time was confirmed”. The “kinase concentration dependence of fluorescence intensity” value on GSK-3β (GSK-3β concentration varied) is “concentration-dependence of GSK-3β was observed”. In assay [1], the “coexistence of fluorescence with Tau-2 and AT8 antibody staining” value was “coexisted”. Besides, the staining of aggregate result in assay [2] was “is not observed”.
